Reference: patent US10294202B2, “Pyrrolidinones as herbicides” (FMC Corporation, priority 2013, dated 2019)

Columns and labels:
[1] = system: field poppy; experiment: Test D pre-/postemergence herbicide test; type: in vivo, Papaver rhoeas; settings: for Plant response rating: Field Poppy, scale 0 to 100; for Plant response rating, Field Poppy: scale 0 to 100 (0 no effect, 100 complete control)
From the text: Seeds of plant species selected from bluegrass (annual bluegrass, Poa annua), blackgrass (Alopecurus myosuroides), canarygrass (littleseed canarygrass, Phalaris minor), chickweed (common chickweed, Stellaria media), galium (catchweed bedstraw, Galium aparine), bromegrass, downy (downy bromegrass, Bromus tectorum), field poppy (Papaver rhoeas), field violet (Viola arvensis), foxtail, green (green foxtail, Setaria viridis), deadnettle (henbit deadnettle, Lamium amplexicaule), ryegrass, Italian (Italian ryegrass, Lolium multiflorum), kochia (Kochia scoparia), lambsquarters (Chenopodium album), oilseed rape (Brassica napus), pigweed (Amaranthus retroflexus), chamomile (scentless chamomile, Matricaria inodora), Russian thistle (Salsola kali), speedwell (bird's-eye speedwell, Veronica persica), barley, spring (spring barley, Hordeum vulgare), wheat, spring (spring wheat, Triticum aestivum), buckwheat, wild (wild buckwheat, Polygonum convolvulus), mustard, wild (wild mustard, Sinapis arvensis), oat, wild (wild oat, Avena fatua), radish, wild (wild radish, Raphanus raphanistrum), […]), barley, winter (winter barley, Hordeum vulgare), and wheat, winter (winter wheat, Triticum aestivum) were planted into a silt loam soil and treated preemergence with test chemicals formulated in a non-phytotoxic solvent mixture which included a surfactant. At the same time, these species were planted in pots containing Redi-Earth® planting medium (Scotts Company, 14111 Scottslawn Road, Marysville, Ohio 43041) comprising spaghnum peat moss, vermiculite, wetting agent and starter nutrients and treated with postemergence applications of the test chemicals formulated in the same manner. Plants ranged in height from 2 to 18 cm (1- to 4-leaf stage). Treated plants and controls were maintained in a controlled growth environment for 7 to 21 days after which time all species were compared to controls and visually evaluated. Plant response ratings, summarized in Table D, are based on a scale of 0 to 100 where 0 is no effect and 100 is complete control. A dash (-) response means no test result.

[2] = system: kochia; experiment: Test C pre-/postemergence herbicide test; type: in vivo, Kochia scoparia
From the text: (§1) Seeds of plant species selected from blackgrass (Alopecurus myosuroides), ryegrass, Italian (Italian ryegrass, Lolium multiflorum), wheat (winter wheat, Triticum aestivum), galium (catchweed bedstraw, Galium aparine), corn (Zea mays), crabgrass, large (large crabgrass, Digitaria sanguinalis), foxtail, giant (giant foxtail, Setaria faberii), johnsongrass (Sorghum halepense), lambsquarters (Chenopodium album), morningglory (Ipomoea coccinea), nutsedge, yellow (yellow nutsedge, Cyperus esculentus), pigweed (Amaranthus retroflexus), ragweed (common ragweed, Ambrosia elatior), soybean (Glycine max), barnyardgrass (Echinochloa crus-galli), oilseed rape (Brassica napus), waterhemp (common waterhemp, Amaranthus rudis), kochia (Kochia scoparia), oat, wild (wild oat, Avena fatua), surinam grass (Brachiaria decumbens), foxtail, green (green foxtail, Setaria viridis), goosegrass (Eleusine indica), bromegrass, downy (downy bromegrass, Bromus tectorum), nightshade (eastern black nightshade, Solanum ptycanthum), cocklebur (common cocklebur, Xanthium strumarium), cupgrass, woolly (woolly cupgrass, Eriochloa villosa), bermudagrass (Cynodon dactylon), sunflower, (common oilseed sunflower, Helianthus annuus), Russian thistle (Salsola kali) and velvetleaf (Abutilon theophrasti) were planted into a blend of loam soil and sand and treated preemergence with test chemicals formulated in a non-phytotoxic solvent mixture which included a surfactant. At the same time, plants selected from these crop and weed species and also barley (winter barley, Hordeum vulgare), […]), chickweed (common chickweed, Stellaria media), deadnettle (henbit deadnettle, Lamium amplexicaule), and canarygrass (littleseed canarygrass, Phalaris minor) were planted in pots containing Redi-Earth® planting medium (Scotts Company, 14111 Scottslawn Road, Marysville, Ohio 43041) comprising spaghnum peat moss, vermiculite, wetting agent and starter nutrients and treated with postemergence applications of test chemicals formulated in the same manner. Plants ranged in height from 2 to 18 cm (1- to 4-leaf stage) for postemergence treatments. Treated plants and controls were maintained in a greenhouse for 13 to 15 days, after which time all species were compared to controls and visually evaluated. Plant response ratings, summarized in Table C, are based on a scale of 0 to 100 where 0 is no effect and 100 is complete control. A dash (-) response means no test result.

[3] = system: surinam grass; experiment: Test C pre-/postemergence herbicide test; type: in vivo, Brachiaria decumbens
From the text: as §1

[4] = Preemergence, 31 g ai/ha, scale 0 to 100, 0 is no effect and 100 is complete control
[5] = Preemergence, 62 g ai/ha, scale 0 to 100
[6] = Preemergence, 125 g ai/ha, scale 0 to 100 (0 no effect, 100 complete control)
[7] = Postemergence, 31 g ai/ha, scale 0 (no effect) to 100 (complete control)
[8] = Postemergence, 62 g ai/ha, scale 0 to 100 (0 no effect, 100 complete control)
[9] = Postemergence, 125 g ai/ha, scale 0 to 100 (0 no effect, 100 complete control)
[10] = Postemergence, 250 g ai/ha, scale 0 to 100 (0 no effect, 100 complete control)
[11] = Postemergence, 31 g ai/ha, scale 0 to 100 (0 no effect, 100 complete control)
[12] = Postemergence, 62 g ai/ha, scale 0 (no effect) to 100 (complete control)
[13] = Postemergence, 16 g ai/ha, scale 0 to 100 (0 no effect, 100 complete control)
[14] = Preemergence, 16 g ai/ha, scale 0 to 100

Structure (SMILES) | Plant response rating, Field Poppy ([1]; Preemergence, 62 g ai/ha) | Plant response rating, Field Poppy ([1]; Preemergence, 31 g ai/ha) | Plant response rating, Kochia [2, 5] | Plant response rating, Kochia [2, 6] | Plant response rating, Surinam Grass [3, 5] | Plant response rating, Surinam Grass [3, 6] | Plant response rating, Kochia [2, 7] | Plant response rating, Kochia [2, 8] | Plant response rating, Kochia [2, 9] | Plant response rating, Kochia [2, 10] | other results
O=C1NCC(c2ccc(F)c(F)c2)C1C(=O)Nc1ccccc1C(F)(F)F (racemic) [Compound 6] | 0 | 0 | – | – | – | – | – | – | – | – | Plant response rating ([1]; Postemergence, 16 g ai/ha): 0; Plant response rating ([1]; Postemergence, 31 g ai/ha): 0; Plant response rating ([1]; Postemergence, 62 g ai/ha): 20; Plant response rating ([1]; Postemergence, 125 g ai/ha): 20; Plant response rating ([1]; Postemergence, 250 g ai/ha): 30; Plant response rating ([1]; Preemergence, 125 g ai/ha): 0; Plant response rating ([1]; Preemergence, 250 g ai/ha): 100
O=C1NCC(c2cccc(OC(F)(F)F)c2)C1C(=O)Nc1ccccc1F (centres unmarked) [Compound 69] | – | – | 0 | 0 | 75 | 85 | – | – | – | – | Kochia plant response rating [2, 4]: 0; Plant response rating (scale of 0 to 100), Kochia ([2]; Preemergence, 250 g ai/ha): 25; Surinam Grass plant response rating [3, 4]: 60; Plant response rating (scale of 0 to 100), Surinam Grass ([3]; Preemergence, 250 g ai/ha): 85
O=C1NCC(c2ccc(F)c(F)c2)C1C(=O)Nc1cccc(F)c1F (racemic) [Compound 101] | – | – | – | – | – | – | 45 | 30 | 50 | 50 | –
O=C1NCCC1C(=O)N(c1ccc(F)c(F)c1)c1ccccc1F (centres unmarked) [Compound 5, N-(3,4-difluorophenyl)-N-(2-fluorophenyl)-2-oxo-3-pyrrolidinecarboxamide] | – | – | 0 | 0 | 85 | 95 | – | – | – | – | –
O=C1NCC(c2ccc(C(F)(F)F)cc2)C1C(=O)Nc1ccccc1F (centres unmarked) [Compound 79, N-(2-fluorophenyl)-2-oxo-4-[4-(trifluoromethyl)phenyl]-3-pyrrolidinecarboxamide] | – | – | – | – | – | – | 5 | 55 | 55 | – | –
O=C1NCC(c2ccc(F)c(C(F)(F)F)c2)C1C(=O)Nc1cccc(F)c1F (racemic) [Compound 77] | 90 | 75 | – | – | – | – | – | – | – | – | Plant response rating ([1]; Preemergence, 125 g ai/ha): 95; Plant response rating ([1]; Preemergence, 250 g ai/ha): 100
Cc1ccccc1NC(=O)C1C(=O)NCC1c1cccc(C(F)(F)F)c1 (racemic) [Compound 109] | – | – | – | – | – | – | 0 | 0 | 0 | 0 | –
Cc1c(F)cccc1NC(=O)C1C(=O)NCC1c1ccc(F)c(F)c1 (racemic) [Compound 106] | – | – | – | – | – | – | 0 | 40 | 30 | 35 | –
O=C1NCC(c2cccc(OC(F)F)c2)C1C(=O)Nc1cccc(F)c1F (centres unmarked) [Compound 224] | – | – | – | – | – | – | – | – | 50 | 70 | Plant response rating, Kochia [2, 11]: 0; Plant response rating, Kochia [2, 12]: 40
O=C1NCC(c2ccc(C(F)(F)F)cc2)C1C(=O)Nc1ccccc1F (centres unmarked) [Compound 231] | 80 | 80 | – | – | – | – | – | – | – | – | Plant response rating ([1]; Postemergence, 31 g ai/ha): 0; Plant response rating ([1]; Postemergence, 62 g ai/ha): 20; Plant response rating ([1]; Postemergence, 125 g ai/ha): 0; Plant response rating ([1]; Postemergence, 250 g ai/ha): 50; Plant response rating, Field Poppy ([1]; Preemergence, 125 g ai/ha): 100; Plant response rating ([1]; Preemergence, 250 g ai/ha): 95
O=C1NCC(c2cc(F)c(F)cc2F)C1C(=O)Nc1cccc(F)c1F (centres unmarked) [Compound 50] | 0 | 50 | – | – | – | – | 0 | 0 | 0 | 0 | Plant response rating, Surinam Grass [3, 7]: 5; Plant response rating, Surinam Grass [3, 8]: 5; Plant response rating, Surinam Grass [3, 9]: 5; Plant response rating, Surinam Grass [3, 10]: 15; Plant response rating ([1]; Postemergence, 16 g ai/ha): 0; Plant response rating ([1]; Postemergence, 31 g ai/ha): 0; Plant response rating ([1]; Postemergence, 62 g ai/ha): 0; Plant response rating ([1]; Postemergence, 125 g ai/ha): 0; Plant response rating, Field Poppy ([1]; Preemergence, 16 g ai/ha): 0; Plant response rating ([1]; Preemergence, 125 g ai/ha): 65
O=C1NCC(c2cccc(Br)c2)C1C(=O)Nc1ccc(F)c(F)c1F (centres unmarked) [Compound 310] | – | – | – | – | – | – | – | – | – | 80 | Plant response rating, Kochia [2, 11]: 40; Plant response rating, Kochia [2, 12]: 50
O=C1NCC(c2ccc(Cl)c(F)c2)C1C(=O)Nc1cccc(F)c1F (centres unmarked) [Compound 52] | 50 | 50 | 10 | 15 | 35 | 45 | 30 | 35 | 40 | 50 | Plant response rating, Surinam Grass [3, 7]: 0; Plant response rating, Surinam Grass [3, 8]: 5; Plant response rating, Surinam Grass [3, 10]: 30; Plant response rating ([1]; Postemergence, 16 g ai/ha): 0; Plant response rating ([1]; Postemergence, 31 g ai/ha): 0; Plant response rating ([1]; Postemergence, 62 g ai/ha): 0; Plant response rating ([1]; Postemergence, 125 g ai/ha): 0; Plant response rating ([1]; Postemergence, 250 g ai/ha): 0; Plant response rating, Field Poppy ([1]; Preemergence, 16 g ai/ha): 30; Plant response rating ([1]; Preemergence, 250 g ai/ha): 80
O=C1NCC(c2cc(F)c(F)c(F)c2)C1C(=O)Nc1cccc(F)c1F (centres unmarked) [Compound 48] | – | – | 10 | 10 | 75 | 85 | 10 | 10 | 20 | – | Plant response rating, Kochia [2, 13]: 0; Plant response rating, Kochia [2, 14]: 0; Plant response rating, Surinam Grass [3, 13]: 0; Plant response rating, Surinam Grass [3, 7]: 5; Plant response rating, Surinam Grass [3, 8]: 25; Plant response rating, Surinam Grass [3, 9]: 25; Plant response rating, Surinam Grass [3, 14]: 10
O=C1NCC(c2ccc(F)c(F)c2)C1C(=O)Nc1ccc(F)c(F)c1F (centres unmarked) [Compound 346] | – | – | – | – | – | – | – | – | 45 | 40 | Plant response rating, Kochia [2, 11]: 45; Plant response rating, Kochia [2, 12]: 50
O=C1NCC(c2ccc(F)c(Cl)c2)C1C(=O)Nc1ccccc1F (centres unmarked) [Compound 60] | – | – | 0 | 0 | 70 | 70 | 0 | 10 | 45 | – | Plant response rating, Surinam Grass [3, 7]: 0; Plant response rating, Surinam Grass [3, 8]: 0; Plant response rating, Surinam Grass [3, 9]: 0
